# Measured values as given in PMC8175350, “Drug repurposing screens identify chemical entities for the development of COVID-19 interventions” (Nature Communications, 2021).
# Where two headings read alike, the source gives them in different places.
# Assays:
# HEK293T [1] = experiment: HEK293T 72 h CellTiter-Glo cytotoxicity; conditions: 72 h
# [2] = HEK293T 72 h CellTiter-Glo cytotoxicity; conditions: human, HEK293T cells
# [3] = Uninfected Calu-3 48 h Cell-Titer Glo cytotoxicity counter screen; conditions: human, uninfected Calu-3 cells
# Calu-3 cells [4] = experiment: as above; conditions: curve plateau at infinite concentration
# HeLa-ACE2 cells [5] = experiment: cells; conditions: Homo sapiens; for EC50: HeLa-ACE2, read-out: HeLa-ACE2 cell count EC50 GeoMean; for Emax: HeLa-ACE2, 24 h, read-out: HeLa-ACE2 cell count Sinf Average
# [6] = Uninfected HeLa-ACE2 24 h live/dead cytotoxicity counter screen; assay type: cell-based, human; conditions: human, uninfected HeLa-ACE2 cells; read-out: HeLa-ACE2 uninfected cytotoxicity CC50 GeoMean
# HeLa-ACE2 cells [7] = experiment: as above; assay type: cell-based, human
# Calu-3 cells [8] = experiment: cells; conditions: Homo sapiens; for Emax: Calu-3, 48 h, read-out: Calu-3 cell count Sinf Average; for EC50: Calu-3, read-out: Calu-3 cell count EC50 GeoMean
# SARS-CoV-2 [9] = experiment: microbe, parasite or virus in culture; assay type: cell-based; conditions: for Emax: Severe acute respiratory syndrome coronavirus 2, HeLa-ACE2, 24 h, read-out: HeLa-ACE2 CoV-2 Sinf Average; for EC50: read-out: HeLa-ACE2 CoV-2 EC50 GeoMean
# HepG2 [10] = experiment: HepG2 72 h CellTiter-Glo cytotoxicity; conditions: 72 h
# [11] = HepG2 72 h CellTiter-Glo cytotoxicity; conditions: human, HepG2 cells
# SARS-CoV-2 [12] = experiment: microbe, parasite or virus in culture; assay type: cell-based; conditions: for Emax: Severe acute respiratory syndrome coronavirus 2, HeLa-ACE2, 10 h, read-out: HeLa-ACE2 TOA CoV-2 Sinf Average; for EC50: read-out: HeLa-ACE2 TOA CoV-2 EC50 GeoMean
# SARS-CoV-2 [13] = assay type: cell-based; conditions: combination with remdesivir, synergy score δ
# SARS-CoV-2 [14] = experiment: microbe, parasite or virus in culture; assay type: cell-based; conditions: for Emax: Severe acute respiratory syndrome coronavirus 2, Calu-3, 48 h, read-out: Calu-3 CoV-2 Sinf Average; for EC50: read-out: Calu-3 CoV-2 EC50 GeoMean
# HeLa-ACE2 cells [15] = experiment: Total cell count in the HeLa-ACE2 TOA assay; assay type: cell-based; conditions: Homo sapiens; for EC50: HeLa-ACE2, read-out: HeLa-ACE2 TOA cell count EC50 GeoMean; for Emax: HeLa-ACE2, 10 h, curve plateau at infinite concentration, read-out: HeLa-ACE2 TOA cell count Sinf Average
# Text: Supplement 41467_2021_23328_MOESM3_ESM.xlsx, sheet "Table S1" | column: HeLa-ACE2 TOA cell count
# HEK293T [16] = conditions: human
# Calu-3 cells [17] = conditions: for Calu-3 uninfected cytotoxicity Sinf Average: human
# HepG2 [18] = conditions: human
# HeLa-ACE2 cells [19] = experiment: Total cell count in the HeLa-ACE2 TOA (time of addition) assay; assay type: cell-based, human; conditions: Homo sapiens, HeLa-ACE2; read-out: HeLa-ACE2 TOA cell count EC50 GeoMean
# in vitro = conditions: human, Calu-3 uninfected cytotoxicity CC50 GeoMean
# [20] = Calu-3 uninfected cytotoxicity CC50 GeoMean
# [21] = curve plateau at infinite concentration
# [22] = Severe acute respiratory syndrome coronavirus 2, HeLa-ACE2, detail column
# [23] = Severe acute respiratory syndrome coronavirus 2, HeLa-ACE2
# [24] = Severe acute respiratory syndrome coronavirus 2, Calu-3, detail column
# [25] = Severe acute respiratory syndrome coronavirus 2, Calu-3
Structure (SMILES),HEK293T 72-hour cytotoxicty Sinf Average (HEK293T [1]) [%],CC50 at 72 h [2] [µM],"CC50 at 48 h [3, 20] [µM]",Calu-3 uninfected cytotoxicity Sinf Average (Calu-3 cells [4]) [%],EC50 (HeLa-ACE2 cells [5]) [µM],CC50 at 24 h [6] [µM],HeLa-ACE2 uninfected cytotoxicity Sinf Average (HeLa-ACE2 cells [7]; [21]) [%],Emax (Calu-3 cells [8]) [%],EC50 (Calu-3 cells [8]) [µM],Emax (SARS-CoV-2 [9]; [21]) [%],EC50 (SARS-CoV-2 [9]; [22]) [µM],HepG2 72-hour cytotoxicity Sinf Average (HepG2 [10]) [%],CC50 at 72 h [11] [µM],Emax (SARS-CoV-2 [12]; [21]) [%],EC50 (SARS-CoV-2 [12]; [23]) [µM],Emax (SARS-CoV-2 [14]; [21]) [%],EC50 (SARS-CoV-2 [14]; [24]) [µM],EC50 (HeLa-ACE2 cells [15]) [µM],EC50 (SARS-CoV-2 [12]; [22]) [µM],Emax (HeLa-ACE2 cells [5]) [%],other results
NC1(c2ccc(-c3nc4ccn5c(=O)[nH]nc5c4cc3-c3ccccc3)cc2)CCC1 [MK-2206],-102,3.88,8.7,-100,> 9.59,> 22.8,-100,-100,> 9.98,99,1.1,-100,7.59,100,> 9.39,82,> 4.9,> 9.59,,,EC50 ratio between the standard 24 h and the TOA assay (SARS-CoV-2 [12]): > 8; HeLa-ACE2 synergy score with remdesivi [δ] (SARS-CoV-2 [13]): 2.087; SI in Calu-3 (SARS-CoV-2 [14]): < 2
Cc1cccc(/C=N/Nc2cc(N3CCOCC3)n3nc(-c4ccncc4)cc3n2)c1 [APY0201],,,,,> 9.59,> 39.4,,100,> 9.98,,0.014,,,,,,> 9.39,,> 9.59,,"HEK293T 72-hour cytotoxicty Sinf Average (HEK293T [16]; 72 h): -96%; HeLa-ACE2 uninfected cytotoxicity Sinf Average (HeLa-ACE2 cells [7]; human, uninfected HeLa-ACE2 cells, 24 h): -100%; uninfected Calu-3 CC50 (Calu-3 cells [17]): > 26.965 ×÷ 1.196 (n=6) μM; Calu-3 uninfected cytotoxicity Sinf Average (Calu-3 cells [17]; 48 h): -100%; Emax (SARS-CoV-2 [9]): 96%; HeLa-ACE2 SI (SARS-CoV-2 [9]; selectivity index, uninfected HeLa-ACE2 CC50 / SARS-CoV-2 EC50): > 2853.95; HepG2 72-hour cytotoxicity Sinf Average (HepG2 [18]; 72 h): -100%; EC50 (HeLa-ACE2 cells [19]): > 9.59 µM; Emax (SARS-CoV-2 [12]): 100%; CC50 at 48 h (in vitro): > 27 µM; Emax (SARS-CoV-2 [14]): 97%"
COc1cc(C[C@H]2c3cc(OC)c(OC)cc3CCN2C)c(Oc2cc3c(cc2OC)-c2c(OC)c(OC)cc4c2[C@H](C3)N(C)CC4)cc1OC [Thalicarpine],,,,,> 9.6,> 26.6,,-100,> 9.98,,,,,,,,,,> 9.61,,HEK293T 72-hour cytotoxicty Sinf Average (HEK293T [16]): -105%; HeLa-ACE2 uninfected cytotoxicity Sinf Average (HeLa-ACE2 cells [7]): -99%; Calu-3 uninfected cytotoxicity Sinf Average (Calu-3 cells [17]): -92%; HeLa-ACE2 SI (SARS-CoV-2 [9]): > 45.67; Emax (SARS-CoV-2 [9]): 96%; EC50 (SARS-CoV-2 [9]; [23]): 0.582 µM; HepG2 72-hour cytotoxicity Sinf Average (HepG2 [18]): -105%; EC50 (HeLa-ACE2 cells [19]): > 9.61 µM; TOA:HeLa-ACE2 EC50 Ratio (SARS-CoV-2 [12]): 16.501; Emax (SARS-CoV-2 [12]): 100%; CC50 (in vitro): > 15.3 µM; EC50 (SARS-CoV-2 [14]; [25]): > 9.98 µM
"COc1cc2c(Nc3ccc(Cl)c(Cl)c3F)ncnc2cc1OC[C@@H]1C[C@@H]2CN(C)C[C@@H]2C1 [Tesevatinib, XL647, Kadmon Corporation]",-102,2.67,3.52,-105,> 8.16,> 20.6,-100,-100,> 9.97,101,2.44,-103,3.15,100,> 7.61,100,3.32,> 9.59,,100,Emax (HeLa-ACE2 cells [15]): -100%
CNC(=O)c1cc(Oc2ccc(NC(=O)Nc3ccc(Cl)c(C(F)(F)F)c3)cc2)ccn1 [Sorafenib],-107,3.34,,-88,> 8.31,> 8.65,-99,100,> 9.36,100,,-101,7.15,99,,100,,> 9.61,3.51,100,CC50 at 48 h [3]: 5.3 µM; EC50 (SARS-CoV-2 [9]; [23]): > 5.67 µM; EC50 (SARS-CoV-2 [14]; [25]): > 5.2 µM; Emax (HeLa-ACE2 cells [15]): 100%
COc1ccc(C[C@H](N)C(=O)N[C@H]2[C@@H](O)[C@H](n3cnc4c(N(C)C)ncnc43)O[C@@H]2CO)cc1 [Puromycin - cytotoxicity control],-101,0.829,3.95,-101,1.55,0.658,-100,-100,> 10,100,0.48,-101,1.08,103,0.316,97,2.74,> 9.62,,101,
COc1cc(-n2cnc3cc(-c4ccc(Cl)cc4)sc3c2=O)ccc1OCCN1CCCC1 [GW-803430],-101,,,,> 7.88,18.9,,100,> 9.98,,,-100,,,,,,,> 9.59,100,HeLa-ACE2 uninfected cytotoxicity Sinf Average (HeLa-ACE2 cells [7]): -100%; Calu-3 uninfected cytotoxicity Sinf Average (Calu-3 cells [17]): -116%; HeLa-ACE2 SI (SARS-CoV-2 [9]): 11.16; Emax (SARS-CoV-2 [9]): 100%; EC50 (SARS-CoV-2 [9]; [23]): 1.7 µM; EC50 (HeLa-ACE2 cells [19]): > 9.59 µM; TOA:HeLa-ACE2 EC50 Ratio (SARS-CoV-2 [12]): 5.656; Emax (SARS-CoV-2 [12]): 100%; CC50 (in vitro): 5.81 µM; Calu-3 SI (SARS-CoV-2 [14]): 0.88; Emax (SARS-CoV-2 [14]): 100%; EC50 (SARS-CoV-2 [14]; [25]): 6.57 µM
